Data as given in article PMC3229523, “Identification of Lactoferricin B Intracellular Targets Using an Escherichia coli Proteome Chip” (PLoS ONE, 2011).
Entries after “also recorded” stand apart in the source; their conditions may differ. Ends that are not written are not given here. * marks the point of attachment. Biotin = O=C1N[C@H]2[C@H](CS[C@H]2CCCCC(=O)*)N1

Legend:
[1] = system: E. coli K-12 MG1655; test: E. coli growth inhibition (growth curves, OD595); format: cell-based; details: 22.4 µM, approx. 10^7 CFU/ml, LB medium, 37°C with shaking, OD595 every 20 min for 7 h 20 min, PBS negative control, Figure 2
Description: The E. coli K-12 MG1655 strain was first inoculated into LB medium and incubated at 37°C with shaking for 16 h. After incubation, the culture was diluted to approximately 10^7 CFU/ml using LB medium. Then, 22.4 µM of N-terminal biotinylated LfcinB (Kelowna Inc.), LfcinB (Kelowna Inc.) or biotin (Thermo) were individually added to the diluted cultures in a 96-well plate. PBS was used as a negative control. Finally, each compound or PBS with E. coli was incubated at 37°C with shaking and the growth curves were observed by measuring the OD595 value every 20 min for 7 h 20 min in a microplate reader (Synergy 2, BioTek®).

[2] = system: Bovine Serum Albumin, BSA; test: Fluorescence polarization assay, BSA negative control; format: binding; details: BSA 0.4, 0.2, 0.1, 0.05 µM (negative control); 100 nM labeled LfcinB
Excerpt: (§1) FP assays, investigations of the binding between two molecules in a homogeneous aqueous environment, were used to validate the identified 153 proteins. […] If a fluorophore only binds to a small molecule, such as peptide, the rotation of the complex is fast and the light emits in a different plane of polarization. Therefore, the degree of polarization is low. However, once a fluorophore binds to a large molecule, the bound complex is stimulated with polarized light. The light emits in the same polarized plane, and the complex is maintained in the same plane of polarization, causing an increase in the degree of polarization [22]–[24]. The amount of molecules binding to a fluorophore influences the degree of polarization. In this study, LfcinB was labeled with DyLight™ 549 as a reference value. Once the protein bound to LfcinB, like a fluorophore binds to a large molecule, a high degree of polarization is expected.
(§2) Before the assays, LfcinB was labeled with DyLight™ 549 and tested proteins were quantified with a Pierce® bicinchoninic acid (BCA™) protein assay (Thermo). To label the LfcinB, DyLight™ 549-NHS ester and LfcinB (68∶1, mole/mole) were mixed in PBS at room temperature for 1 h, a D-Salt™ polyacrylamide desalting column (Thermo) was used to remove excess dye and the labeling efficiency of the eluted solution was calculated. […]

[3] = system: Ppc; test: Fluorescence polarization assay, Ppc; format: binding, E. coli; details: 100 nM DyLight 549-labeled LfcinB; protein 0.025-0.4 µM; data not shown
Excerpt: as §1, §2

[4] = system: YdaU; test: Fluorescence polarization assay, YdaU; format: binding, E. coli; details: 100 nM DyLight 549-labeled LfcinB; protein 0.025-0.4 µM; data not shown
Excerpt: as §1, §2

[5] = system: RecC; test: Fluorescence polarization assay, RecC; format: binding, E. coli; details: 100 nM DyLight 549-labeled LfcinB; protein 0.025-0.4 µM; data not shown
Excerpt: as §1, §2

[6] = system: MalP; test: Fluorescence polarization assay, MalP; format: binding, E. coli; details: 100 nM DyLight 549-labeled LfcinB; protein 0.025-0.4 µM; data not shown
Excerpt: as §1, §2

[7] = system: HyaF; test: Fluorescence polarization assay, HyaF; format: binding, E. coli
Excerpt: as §1, §2

[8] = system: YjbM; test: Fluorescence polarization assay, YjbM; format: binding, E. coli; details: 100 nM DyLight 549-labeled LfcinB; protein 0.025-0.4 µM; data not shown
Excerpt: as §1, §2

[9] = system: YnhE; test: Fluorescence polarization assay, YnhE; format: binding, E. coli; details: 100 nM DyLight 549-labeled LfcinB; protein 0.025-0.4 µM; data not shown
Excerpt: as §1, §2

[10] = system: MetL; test: Fluorescence polarization assay, MetL; format: binding, E. coli
Excerpt: as §1, §2

## Lactoferricin B (Biotin-FKCRRWQWRMKKLGAPSITCVRRAF; ends and bridges not checked) [LfcinB]
[1]
  growth curves / inhibition of E. coli growth: exhibited the same inhibition of E. coli growth; also recorded: exhibit the same antibacterial activity
[2]
  concentration dependence of polarization: remained constant with increasing concentrations of BSA
[3]
  binding to Ppc: confirmed to bind to LfcinB
[4]
  binding to YdaU: confirmed to bind to LfcinB
[5]
  binding to RecC: confirmed to bind to LfcinB
[6]
  binding to MalP: confirmed to bind to LfcinB
[7]; 100 nM DyLight 549-labeled LfcinB, protein 0.025-0.4 µM, PBS, 0.005% BSA, 0.01% Triton X-100, room temperature, 1 h, ex 540 nm, em 590 nm, Figure 5A
  degree of polarization vs BSA: higher polarization than the negative control
[7]; HyaF, two-fold dilution 0.4 µM to 0.025 µM, 100 nM labeled LfcinB
  concentration dependence of polarization: increased with increasing concentrations of these 4 proteins
[8]
  binding to YjbM: confirmed to bind to LfcinB
[9]
  binding to YnhE: confirmed to bind to LfcinB
[10]; 100 nM DyLight 549-labeled LfcinB, protein 0.025-0.4 µM, PBS, 0.005% BSA, 0.01% Triton X-100, room temperature, 1 h, Figure 5C
  degree of polarization vs BSA: higher polarization than the negative control
[10]; MetL, two-fold dilution 0.4 µM to 0.025 µM, 100 nM labeled LfcinB
  concentration dependence of polarization: increased with increasing concentrations of these 4 proteins
